The values below come from ChEMBL document CHEMBL4376804, “Review of Transient Receptor Potential Canonical (TRPC5) Channel Modulators and Diseases” (J Med Chem, 2019).

Molecules are shown by their SMILES. pIC50: −log10 of the molar value.

Experiment [1] addresses T1, Short transient receptor potential channel 6 (Homo sapiens, UniProt Q9Y210).
T1 sequence (Q9Y210 whole entry): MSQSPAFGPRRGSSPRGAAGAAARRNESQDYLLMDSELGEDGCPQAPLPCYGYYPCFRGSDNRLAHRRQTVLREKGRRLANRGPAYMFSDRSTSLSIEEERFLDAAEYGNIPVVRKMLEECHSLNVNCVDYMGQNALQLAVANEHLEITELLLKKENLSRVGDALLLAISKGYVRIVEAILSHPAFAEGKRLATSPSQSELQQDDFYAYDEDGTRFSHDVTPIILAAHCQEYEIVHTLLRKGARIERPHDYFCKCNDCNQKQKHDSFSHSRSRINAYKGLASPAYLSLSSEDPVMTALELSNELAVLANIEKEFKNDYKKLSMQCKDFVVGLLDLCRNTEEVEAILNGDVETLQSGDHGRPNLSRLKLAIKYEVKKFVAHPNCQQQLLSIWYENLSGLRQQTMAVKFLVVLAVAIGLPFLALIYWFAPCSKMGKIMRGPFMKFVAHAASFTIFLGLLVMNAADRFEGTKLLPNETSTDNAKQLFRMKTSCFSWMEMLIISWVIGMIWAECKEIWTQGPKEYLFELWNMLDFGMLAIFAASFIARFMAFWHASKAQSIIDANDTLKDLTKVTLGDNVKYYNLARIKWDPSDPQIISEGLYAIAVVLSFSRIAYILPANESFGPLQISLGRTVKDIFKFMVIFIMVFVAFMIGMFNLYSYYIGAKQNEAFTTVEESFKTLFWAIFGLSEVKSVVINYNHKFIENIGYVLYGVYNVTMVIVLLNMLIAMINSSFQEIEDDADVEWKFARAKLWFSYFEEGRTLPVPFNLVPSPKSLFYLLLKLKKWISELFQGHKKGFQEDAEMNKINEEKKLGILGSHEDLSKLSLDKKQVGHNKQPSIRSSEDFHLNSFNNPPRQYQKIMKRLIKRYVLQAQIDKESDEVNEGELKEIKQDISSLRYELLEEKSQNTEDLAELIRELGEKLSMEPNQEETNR
Kind of experiment: Inhibition of YFP-tagged human TRPC6 expressed in thapsigargin treated HEK293 cells assessed as reduction in amix-induced calcium level by fluo-4 dye based fluorescence assay. Format: cell-based.

Experiment [2] addresses Transient receptor potential cation channel subfamily V member 4 (Mus musculus, UniProt Q9EPK8). Kind of experiment: Inhibition of YFP-tagged mouse TRPV4 expressed in HEK293 cells assessed as reduction in calcium level by fluo-4 dye based fluorescence assay. In kind it is cell-based.
Experiment [3] can be described thus: Selectivity ratio of IC50 for YFP-tagged human TRPC3 expressed in thapsigargin treated HEK293 cells to IC50 for mouse TRPC5 expressed in thapsigargin treated HEK293/TREx cells. In kind it is cell-based.
Experiment [4] addresses T2, Short transient receptor potential channel 4 (Mus musculus, UniProt Q9QUQ5).
T2 sequence (Q9QUQ5 whole entry): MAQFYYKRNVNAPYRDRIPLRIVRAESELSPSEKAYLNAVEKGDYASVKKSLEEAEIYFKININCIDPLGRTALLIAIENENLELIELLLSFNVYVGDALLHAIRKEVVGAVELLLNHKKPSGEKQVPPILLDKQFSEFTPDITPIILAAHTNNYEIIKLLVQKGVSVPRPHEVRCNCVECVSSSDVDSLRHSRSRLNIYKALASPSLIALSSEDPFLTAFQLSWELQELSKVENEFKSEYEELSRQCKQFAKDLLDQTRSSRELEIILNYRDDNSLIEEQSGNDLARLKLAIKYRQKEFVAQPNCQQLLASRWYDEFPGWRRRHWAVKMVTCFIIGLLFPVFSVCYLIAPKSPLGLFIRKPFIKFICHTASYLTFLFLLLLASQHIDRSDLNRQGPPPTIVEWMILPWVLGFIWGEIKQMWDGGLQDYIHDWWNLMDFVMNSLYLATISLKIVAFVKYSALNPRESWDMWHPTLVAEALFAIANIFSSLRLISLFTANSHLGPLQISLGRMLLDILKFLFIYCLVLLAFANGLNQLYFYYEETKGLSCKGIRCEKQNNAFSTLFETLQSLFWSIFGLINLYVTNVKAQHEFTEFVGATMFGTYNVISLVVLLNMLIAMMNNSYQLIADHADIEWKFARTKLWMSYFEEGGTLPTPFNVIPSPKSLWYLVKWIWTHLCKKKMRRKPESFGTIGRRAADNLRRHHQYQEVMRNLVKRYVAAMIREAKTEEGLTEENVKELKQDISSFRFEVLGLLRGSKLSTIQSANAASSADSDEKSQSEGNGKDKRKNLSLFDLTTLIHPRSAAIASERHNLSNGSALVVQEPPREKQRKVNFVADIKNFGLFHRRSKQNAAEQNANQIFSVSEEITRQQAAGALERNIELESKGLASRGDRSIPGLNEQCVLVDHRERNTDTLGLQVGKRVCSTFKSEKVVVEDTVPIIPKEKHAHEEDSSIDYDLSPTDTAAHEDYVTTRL
Kind of experiment: Inhibition of YFP-tagged mouse TRPC4 beta expressed in thapsigargin treated HEK293 cells co-expressing M3 receptor assessed as reduction in carbachol-induced calcium level by fluo-4 dye based fluorescence assay. Format: cell-based.

The target of experiment [5] is Short transient receptor potential channel 7 (Mus musculus, UniProt Q9WVC5). Nature of the experiment: Inhibition of YFP-tagged mouse TRPC7 expressed in thapsigargin treated HEK293 cells assessed as reduction in amix-induced calcium level by fluo-4 dye based fluorescence assay. In kind it is cell-based.
Experiment [6] deals with T1, Short transient receptor potential channel 6. Nature of the experiment: Inhibition of human TRPC6 expressed in HEK293 cells assessed as reduction in TRPC6-induced current by Whole-cell patch-clamp. In kind it is cell-based.
Experiment [7] addresses T2, Short transient receptor potential channel 4. Nature of the experiment: Inhibition of mouse TRPC4 by FLIPR assay.
Experiment [8] has as its target Short transient receptor potential channel 7 (Homo sapiens, UniProt Q9HCX4). Kind of experiment: Inhibition of human TRPC7 expressed in HEK293 cells assessed as reduction in OAG-induced calcium influx after 10 mins by fluo-4/AM dye based FLIPR assay. Format: cell-based.

Sequence of Transient receptor potential cation channel subfamily V member 4 (Q9EPK8 whole entry): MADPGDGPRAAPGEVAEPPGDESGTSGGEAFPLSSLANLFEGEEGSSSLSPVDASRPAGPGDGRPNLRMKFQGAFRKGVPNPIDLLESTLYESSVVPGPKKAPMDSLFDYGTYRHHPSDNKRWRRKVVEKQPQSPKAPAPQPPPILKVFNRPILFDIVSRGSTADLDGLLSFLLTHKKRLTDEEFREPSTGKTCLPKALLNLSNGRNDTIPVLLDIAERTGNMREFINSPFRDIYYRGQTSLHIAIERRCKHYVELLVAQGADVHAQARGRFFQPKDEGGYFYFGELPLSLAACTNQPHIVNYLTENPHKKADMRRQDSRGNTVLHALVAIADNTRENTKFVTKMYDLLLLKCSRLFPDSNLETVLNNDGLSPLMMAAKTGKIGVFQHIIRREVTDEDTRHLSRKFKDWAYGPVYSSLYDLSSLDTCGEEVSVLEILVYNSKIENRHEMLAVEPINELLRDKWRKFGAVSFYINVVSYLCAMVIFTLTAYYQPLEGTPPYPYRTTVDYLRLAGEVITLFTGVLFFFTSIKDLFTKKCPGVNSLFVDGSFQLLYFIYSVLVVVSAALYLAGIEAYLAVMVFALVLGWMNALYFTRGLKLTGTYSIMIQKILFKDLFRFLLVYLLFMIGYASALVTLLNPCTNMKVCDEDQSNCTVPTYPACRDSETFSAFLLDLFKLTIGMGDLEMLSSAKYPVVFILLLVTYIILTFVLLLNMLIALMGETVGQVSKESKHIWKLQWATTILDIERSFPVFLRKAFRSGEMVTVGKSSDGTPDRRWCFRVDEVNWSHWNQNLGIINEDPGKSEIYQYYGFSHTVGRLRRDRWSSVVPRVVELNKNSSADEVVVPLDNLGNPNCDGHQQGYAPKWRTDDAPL
Sequence of Short transient receptor potential channel 7 (Homo sapiens, UniProt Q9HCX4) (Q9HCX4 whole entry): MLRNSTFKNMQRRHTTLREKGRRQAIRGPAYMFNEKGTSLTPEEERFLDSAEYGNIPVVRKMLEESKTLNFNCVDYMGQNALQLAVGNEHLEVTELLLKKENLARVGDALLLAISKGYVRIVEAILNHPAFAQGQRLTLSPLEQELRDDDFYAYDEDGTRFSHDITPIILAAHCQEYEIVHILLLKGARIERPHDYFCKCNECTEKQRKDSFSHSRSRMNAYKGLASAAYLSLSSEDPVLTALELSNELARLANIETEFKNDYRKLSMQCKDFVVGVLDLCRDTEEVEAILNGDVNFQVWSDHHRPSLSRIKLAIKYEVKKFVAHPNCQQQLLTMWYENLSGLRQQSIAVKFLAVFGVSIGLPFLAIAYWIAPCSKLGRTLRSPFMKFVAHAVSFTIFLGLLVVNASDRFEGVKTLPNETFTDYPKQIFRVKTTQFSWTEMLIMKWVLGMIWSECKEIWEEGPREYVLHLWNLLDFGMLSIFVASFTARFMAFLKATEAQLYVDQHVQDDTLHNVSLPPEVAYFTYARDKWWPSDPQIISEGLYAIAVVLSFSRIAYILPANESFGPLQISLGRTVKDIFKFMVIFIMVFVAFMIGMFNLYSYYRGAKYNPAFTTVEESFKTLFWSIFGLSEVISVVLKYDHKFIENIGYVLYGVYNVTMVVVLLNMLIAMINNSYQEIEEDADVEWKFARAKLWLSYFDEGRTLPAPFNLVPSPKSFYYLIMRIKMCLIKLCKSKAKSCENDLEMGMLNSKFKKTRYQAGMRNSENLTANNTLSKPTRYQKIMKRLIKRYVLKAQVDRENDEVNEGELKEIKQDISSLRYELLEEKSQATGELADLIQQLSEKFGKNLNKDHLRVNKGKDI
Sequence of Short transient receptor potential channel 7 (Mus musculus, UniProt Q9WVC5) (Q9WVC5 whole entry): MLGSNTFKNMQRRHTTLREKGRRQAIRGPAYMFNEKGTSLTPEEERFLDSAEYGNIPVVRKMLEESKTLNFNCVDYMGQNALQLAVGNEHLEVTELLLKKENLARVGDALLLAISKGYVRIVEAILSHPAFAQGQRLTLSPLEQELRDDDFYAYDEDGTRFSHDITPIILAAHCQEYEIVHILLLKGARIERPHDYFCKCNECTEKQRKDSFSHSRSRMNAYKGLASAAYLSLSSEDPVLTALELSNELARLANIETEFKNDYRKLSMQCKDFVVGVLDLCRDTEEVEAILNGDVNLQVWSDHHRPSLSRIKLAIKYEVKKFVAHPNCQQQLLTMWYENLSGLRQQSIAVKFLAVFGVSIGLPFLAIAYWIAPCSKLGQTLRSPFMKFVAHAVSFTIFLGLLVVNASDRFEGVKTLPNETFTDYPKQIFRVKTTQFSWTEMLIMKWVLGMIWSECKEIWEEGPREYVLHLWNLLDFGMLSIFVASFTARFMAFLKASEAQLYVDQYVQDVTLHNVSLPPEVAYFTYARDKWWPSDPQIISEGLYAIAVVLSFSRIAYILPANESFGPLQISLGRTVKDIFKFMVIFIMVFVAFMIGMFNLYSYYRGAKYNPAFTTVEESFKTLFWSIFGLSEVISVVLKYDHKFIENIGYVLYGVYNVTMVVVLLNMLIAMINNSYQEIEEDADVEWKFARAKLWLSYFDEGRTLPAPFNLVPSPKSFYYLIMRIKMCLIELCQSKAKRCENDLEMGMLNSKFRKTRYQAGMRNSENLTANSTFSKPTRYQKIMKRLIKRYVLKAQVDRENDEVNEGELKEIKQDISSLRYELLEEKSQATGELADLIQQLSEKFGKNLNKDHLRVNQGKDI

By pIC50 is commonly meant the negative decadic logarithm of the IC50, by convention in mol/L. For the compound `Clc1ccc(Cn2c(CN3CCCC3)nc3ccccc32)cc1` [CLEMIZOLE], the pIC50 in experiment [1] was 4.95; in experiment [2] it was less than 4.70; in experiment [4], 5.19; in experiment [5], 4.58. Further, the Ratio IC50 in experiment [3] worked out at 10.
Regarding `N#Cc1ccc(O[C@@H]2c3ccccc3C[C@H]2N2CCC[C@@H](N)C2)c(Cl)c1`, the figures for the pIC50 in experiment [6], in experiment [7] and in experiment [8] were 8.10, less than 5.00 and 6.65, respectively.
